Like-named read-outs stand apart in the source and are kept apart here.
Key:
RERE = assay: Chemoproteomic binding profiling, K562 cell extract, SAHA/ITF2357 probe matrix (Kd app), ELSA (ELM-SANT) domain protein; design: species or system human
EHMT2 = assay: Chemoproteomic binding profiling, K562 cell extract, SAHA/ITF2357 probe matrix (Kd app), ELSA (ELM-SANT) domain proteins group; design: species or system human; details: protein EHMT2
MIER3 = assay: Chemoproteomic binding profiling, K562 cell extract, SAHA/ITF2357 probe matrix (Kd app), ELSA (ELM-SANT) domain protein; design: species or system human; details: ELSA (ELM-SANT) domain proteins
MIER1 = assay: as above; design: species or system human; details: ELSA (ELM-SANT) domain proteins
[1] = test system: T1, MiDAC complex (HDAC1/2, DNTTIP1, CDYL, MIDEAS); assay: Chemoproteomic binding profiling, K562 cell extract, SAHA/ITF2357 probe matrix (Kd app); design: species or system human
T1 construct: Kd^app MIDEAS; other: protein MIDEAS; MiDAC complex; Kd^app DNTTIP1; other: protein DNTTIP1

Sin3 complex = assay: as above; design: species or system human
NuRD complex = assay: as above; design: species or system human
MIER2 = assay: Chemoproteomic binding profiling, K562 cell extract, SAHA/ITF2357 probe matrix (Kd app), ELSA (ELM-SANT) domain protein; design: species or system human; details: ELSA (ELM-SANT) domain proteins
[2] = molecular target: T2, non-HDAC targets (e.g. BZW2, ISOC2, aldehyde dehydrogenases) (Homo sapiens, UniProt Q96AB3); assay: Chemoproteomic binding profiling, K562 cell extract, SAHA/ITF2357 probe matrix (Kd app); details: protein ISOC2; selected HDACi off-targets
T2 construct: endogenous in cells; host or cells: K562 whole cell extract
T2 sequence (Q96AB3 1-205): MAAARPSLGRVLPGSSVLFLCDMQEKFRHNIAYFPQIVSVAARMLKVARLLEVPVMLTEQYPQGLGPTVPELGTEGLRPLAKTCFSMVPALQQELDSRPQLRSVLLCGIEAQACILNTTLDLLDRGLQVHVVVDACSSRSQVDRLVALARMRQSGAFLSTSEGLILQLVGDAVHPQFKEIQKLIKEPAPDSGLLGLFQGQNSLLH

[3] = molecular target: T3, non-HDAC targets (e.g. BZW2, ISOC2, aldehyde dehydrogenases) (Homo sapiens, UniProt Q9Y6E2); assay: as above; details: protein BZW2; selected HDACi off-targets
T3 construct: endogenous in cells; host or cells: K562 whole cell extract
T3 sequence (Q9Y6E2 1-419): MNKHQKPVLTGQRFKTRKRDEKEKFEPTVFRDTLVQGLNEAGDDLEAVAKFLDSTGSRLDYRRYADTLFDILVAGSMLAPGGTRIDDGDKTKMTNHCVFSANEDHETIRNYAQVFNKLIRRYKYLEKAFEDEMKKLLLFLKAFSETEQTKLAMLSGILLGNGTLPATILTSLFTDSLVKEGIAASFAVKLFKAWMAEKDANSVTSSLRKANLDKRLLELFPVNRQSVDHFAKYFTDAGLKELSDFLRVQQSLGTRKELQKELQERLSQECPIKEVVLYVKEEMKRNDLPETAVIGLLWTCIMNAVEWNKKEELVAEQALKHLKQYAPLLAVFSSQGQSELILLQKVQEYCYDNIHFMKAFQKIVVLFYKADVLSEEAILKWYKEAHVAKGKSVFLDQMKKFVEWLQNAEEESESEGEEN

[4] = molecular target: T4, non-HDAC targets (e.g. BZW2, ISOC2, aldehyde dehydrogenases) (Homo sapiens, UniProt P16152); assay: as above; details: protein CBR1; selected HDACi off-targets
T4 construct: Kd^app CBR1; other: protein CBR1; selected HDACi off-targets
T4 sequence (P16152 1-277): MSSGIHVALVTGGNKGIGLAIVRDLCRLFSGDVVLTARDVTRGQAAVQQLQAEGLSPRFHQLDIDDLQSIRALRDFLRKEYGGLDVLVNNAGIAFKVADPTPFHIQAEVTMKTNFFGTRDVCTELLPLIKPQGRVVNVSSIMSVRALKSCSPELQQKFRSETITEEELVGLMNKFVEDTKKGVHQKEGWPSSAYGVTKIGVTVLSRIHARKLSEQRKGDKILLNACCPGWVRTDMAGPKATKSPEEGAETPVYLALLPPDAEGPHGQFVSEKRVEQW

[5] = molecular target: T5, non-HDAC targets (e.g. BZW2, ISOC2, aldehyde dehydrogenases) (Homo sapiens, UniProt O94788); assay: as above; details: protein ALDH1A2; selected HDACi off-targets
T5 construct: endogenous in cells; host or cells: K562 whole cell extract
T5 sequence (O94788 1-518): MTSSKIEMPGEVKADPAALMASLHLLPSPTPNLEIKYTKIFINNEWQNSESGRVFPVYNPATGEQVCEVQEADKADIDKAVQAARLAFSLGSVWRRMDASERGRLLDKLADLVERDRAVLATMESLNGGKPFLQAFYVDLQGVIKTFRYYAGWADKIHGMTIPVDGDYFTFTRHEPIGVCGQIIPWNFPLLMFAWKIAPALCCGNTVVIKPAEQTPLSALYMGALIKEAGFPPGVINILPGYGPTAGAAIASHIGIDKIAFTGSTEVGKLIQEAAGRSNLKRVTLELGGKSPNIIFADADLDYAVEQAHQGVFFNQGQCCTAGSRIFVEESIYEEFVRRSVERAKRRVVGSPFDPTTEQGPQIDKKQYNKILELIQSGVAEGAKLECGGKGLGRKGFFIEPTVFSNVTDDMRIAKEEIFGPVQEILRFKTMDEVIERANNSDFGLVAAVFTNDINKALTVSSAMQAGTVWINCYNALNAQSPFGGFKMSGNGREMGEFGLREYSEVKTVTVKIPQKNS

[6] = molecular target: T6, non-HDAC targets (e.g. BZW2, ISOC2, aldehyde dehydrogenases) (Homo sapiens, UniProt Q08209); assay: as above; details: protein PPP3CA; selected HDACi off-targets
T6 construct: Kd^app PPP3CA; other: protein PPP3CA; selected HDACi off-targets

CoREST complex = assay: as above; design: species or system human
acetylated tubulin = assay: Cell-based tubulin acetylation assay (immunofluorescence, western blotting); design: species or system human; details: K562 and HeLa cells; immunofluorescence and western blotting
[7] = test system: acetylated histones H3 and H4; assay: Cell-based histone acetylation assay (immunofluorescence, western blotting); design: species or system human; details: K562 and HeLa cells
HDAC1 = molecular target: T7, HDAC1 (Homo sapiens, UniProt Q13547); assay: Chemoproteomic binding profiling, K562 cell extract, SAHA/ITF2357 probe matrix (Kd app)
T7 construct: used to probe endogenous HDACs in K562 whole cell extracts; endogenous in cells

[8] = protein RERE, ELSA (ELM-SANT) domain proteins
[9] = protein DNTTIP1, read-out: Kd^app DNTTIP1
[10] = protein MIDEAS, read-out: Kd^app MIDEAS
[11] = protein SAP30, read-out: Kd^app SAP30
[12] = protein SIN3A, read-out: Kd^app SIN3A
[13] = protein SIN3B, read-out: Kd^app SIN3B
[14] = protein GATAD2A, NuRD complex, read-out: Kd^app GATAD2A
[15] = protein GATAD2B, NuRD complex, read-out: Kd^app GATAD2B
[16] = protein MBD2, NuRD complex, read-out: Kd^app MBD2
[17] = protein MBD3, NuRD complex, read-out: Kd^app MBD3
[18] = protein MTA1, NuRD complex, read-out: Kd^app MTA1
[19] = protein MTA2, NuRD complex, read-out: Kd^app MTA2
[20] = protein MTA3, NuRD complex, read-out: Kd^app MTA3
[21] = protein GSE1, CoREST complex, read-out: Kd^app GSE1
[22] = protein HMG20A, CoREST complex, read-out: Kd^app HMG20A
[23] = protein HMG20B, CoREST complex, read-out: Kd^app HMG20B
[24] = protein PHF21A, CoREST complex, read-out: Kd^app PHF21A
[25] = protein RCOR1, CoREST complex, read-out: Kd^app RCOR1
[26] = protein RCOR2, CoREST complex, read-out: Kd^app RCOR2
[27] = protein RCOR3, CoREST complex, read-out: Kd^app RCOR3
[28] = protein ZMYM2, CoREST complex, read-out: Kd^app ZMYM2
[29] = protein ZMYM3, CoREST complex, read-out: Kd^app ZMYM3

T7 sequence (Q13547 whole entry): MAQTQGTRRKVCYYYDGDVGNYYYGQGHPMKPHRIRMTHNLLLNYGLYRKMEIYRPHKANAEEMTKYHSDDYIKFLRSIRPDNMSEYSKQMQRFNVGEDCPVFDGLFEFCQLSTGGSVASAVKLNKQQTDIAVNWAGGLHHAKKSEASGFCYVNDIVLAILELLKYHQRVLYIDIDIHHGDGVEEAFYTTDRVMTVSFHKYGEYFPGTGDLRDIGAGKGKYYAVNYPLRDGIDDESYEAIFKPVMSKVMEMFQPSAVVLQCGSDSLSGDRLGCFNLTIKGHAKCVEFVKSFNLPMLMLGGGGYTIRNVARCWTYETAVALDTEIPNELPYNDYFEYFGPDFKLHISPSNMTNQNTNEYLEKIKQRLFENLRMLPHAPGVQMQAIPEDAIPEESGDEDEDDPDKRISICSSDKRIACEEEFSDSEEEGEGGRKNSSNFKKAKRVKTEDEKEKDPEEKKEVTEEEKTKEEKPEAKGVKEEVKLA

Row | Compound | Kd (RERE; [8]) | Kd (EHMT2) | Kd (MIER3) | Kd (MIER1) | Kd [1, 9] | Kd [1, 10] | Kd (Sin3 complex; [11]) | Kd (Sin3 complex; [12]) | Kd (Sin3 complex; [13]) | Kd (NuRD complex; [14]) | Kd (NuRD complex; [15]) | Kd (NuRD complex; [16]) | Kd (NuRD complex; [17]) | Kd (NuRD complex; [18]) | Kd (MIER2) | Kd [2] | Kd [3] | Kd [4] | Kd [5] | Kd [6] | other results
1 | Cn1cc(C(=O)Cc2ccccc2)cc1C=CC(=O)NO [MC-1293] | > 10 µM | > 10 µM | 209 µM | > 10 µM | > 10 µM | > 10 µM | 164 µM | > 10 µM | > 10 µM | > 10 µM | > 10 µM | > 10 µM | > 10 µM | > 10 µM | > 10 µM | 5 µM | 4 µM | 19 µM | > 10 µM | 40 µM | Kd (NuRD complex; protein CHD4, NuRD complex, read-out: Kd^app CHD4): > 10 µM; Kd (NuRD complex; [19]): > 10 µM; Kd (NuRD complex; [20]): > 10 µM; Kd (CoREST complex; [21]): > 10 µM; Kd (CoREST complex; [22]): > 10 µM; Kd (CoREST complex; [23]): > 10 µM; Kd (CoREST complex; [24]): > 10 µM; Kd (CoREST complex; [25]): > 10 µM; Kd (CoREST complex; [26]): > 10 µM; Kd (CoREST complex; [27]): > 10 µM; Kd (CoREST complex; [28]): > 10 µM; Kd (CoREST complex; [29]): > 10 µM
2 | COc1ccc(Cn2ccc3ccc(C(=O)NO)cc32)cc1 [PCI-34051] | > 59.7 µM | > 59.7 µM | > 59.7 µM | > 59.7 µM | > 59.7 µM | > 59.7 µM | > 59.7 µM | > 59.7 µM | > 59.7 µM | > 59.7 µM | > 59.7 µM | > 59.7 µM | > 59.7 µM | > 59.7 µM | > 59.7 µM | > 59.7 µM | 5.04 µM | 12.8 µM | > 59.7 µM | 59.7 µM | Kd (NuRD complex; [19]): > 59.7 µM; Kd (NuRD complex; [20]): > 59.7 µM; Kd (CoREST complex; [21]): > 59.7 µM; Kd (CoREST complex; [22]): > 59.7 µM; Kd (CoREST complex; [23]): > 59.7 µM; Kd (CoREST complex; [24]): > 59.7 µM; Kd (CoREST complex; [25]): > 59.7 µM; Kd (CoREST complex; [26]): > 59.7 µM; Kd (CoREST complex; [27]): > 59.7 µM; Kd (CoREST complex; [28]): > 59.7 µM; Kd (CoREST complex; [29]): > 59.7 µM
3 | CC(=O)Nc1ccc(C(=O)Nc2ccccc2N)cc1 [tacedinaline] | – | > 85 µM | 171 µM | 195 µM | – | – | – | – | – | – | – | – | – | – | 184 µM | > 85 µM | > 85 µM | > 85 µM | > 85 µM | > 85 µM | tubulin acetylation (in words) (acetylated tubulin): did not affect tubulin; Kd (RERE): > 85 µM; Kd (NuRD complex; read-out: Kd^app CHD4): > 85 µM; Kd (NuRD complex; read-out: Kd^app GATAD2A): 423 µM; Kd (NuRD complex; read-out: Kd^app GATAD2B): 306 µM; Kd (NuRD complex; read-out: Kd^app MBD2): > 85 µM; Kd (NuRD complex; read-out: Kd^app MBD3): 265 µM; Kd (NuRD complex; read-out: Kd^app MTA1): 152 µM; Kd (NuRD complex; read-out: Kd^app MTA2): 226 µM; Kd (NuRD complex; read-out: Kd^app MTA3): 263 µM; histone acetylation (in words) [7]: elicited staining of acetylated histones; Kd (CoREST complex; read-out: Kd^app GSE1): 122 µM; Kd (CoREST complex; read-out: Kd^app HMG20A): 139 µM; Kd (CoREST complex; read-out: Kd^app HMG20B): 168 µM; Kd (CoREST complex; read-out: Kd^app RCOR1): 114 µM; Kd (CoREST complex; read-out: Kd^app RCOR2): 196 µM; Kd (CoREST complex; read-out: Kd^app RCOR3): 159 µM; Kd (CoREST complex; read-out: Kd^app ZMYM2): > 85 µM; Kd (CoREST complex; read-out: Kd^app ZMYM3): > 85 µM
4 | C/C=C1\NC(=O)[C@H]2CSSCC/C=C/[C@H](CC(=O)N[C@H](C(C)C)C(=O)N2)OC(=O)[C@H](C(C)C)NC1=O [romidepsin] | – | – | – | – | – | – | – | – | – | – | – | – | – | – | – | – | – | – | – | – | Kd (HDAC1): 0.01 µM

— US20130071854A1, “METHODS FOR THE IDENTIFICATION AND CHARACTERIZATION OF HDAC INTERACTING COMPOUNDS” (priority 2009, published 2013)
